Consider 66 compounds from PubChem BioAssay AID2124 (Sanford-Burnham Center for Chemical Genomics, 2009).

Results filed as inconclusive are left out. Calls of active or inactive are those of the source. No rule for the calls is given here; tested in MIN6 cells.

The test can be described thus: GFP-wavelength compound autofluorescence in cells – imaging, high-content imaging, artefact control, dose response (AID 2124).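 As to all read-outs here: cells exposed to compound for 48 hours before fixing.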 The following applies: cells, GFP-channel autofluorescence, high-content imaging, at 10 µM; for z-score: stronger effect = higher value.

Consider `N=c1oc2c3c4c(cc2cc1C(=O)Nc1ccccc1)CCCN4CCC3`, for which the z-score is 0.18 and the cell count came to 3140 cells.
The matching figures for `CCOc1ccc(-n2c(SCC(=O)NC(C)CC)nc3n[nH]c(C)c3c2=N)cc1` (configuration not stated): -0.39 (inactive) and 2580 cells.
The matching figures for `Cc1cc(C)c2nc(NNC(=O)c3cc(-c4cccs4)nc4ccccc34)sc2c1`: -0.33 (inactive) and 2740 cells.
The matching figures for `O=C(NCCN1CCCC1)C1(S(=O)(=O)c2ccc(Cl)cc2)CC1`: -0.33 (inactive) and 2860 cells.
As to `Cc1ccc2nc(/C(C#N)=C\c3ccc(N4CCOCC4)o3)[nH]c2c1`, the z-score is 0.7 and the cell count came to 2680 cells.
On to `CC(C)NC(=O)N1CCN(c2ccncc2S(=O)(=O)N2CCOCC2)CC1`, for which the z-score was -0.39 (inactive) and the cell count worked out at 2900 cells.
With `C=CCn1c(=NC(=O)c2cc(-c3cccs3)nc3ccccc23)sc2cc(S(N)(=O)=O)ccc21`, the z-score was -0.33 (inactive) and the cell count was determined as 2770 cells.
The matching figures for `N#Cc1c(C(F)(F)F)cc(-c2ccccc2)nc1SCc1nc(N)nc(N2CCOCC2)n1`: 0.32 and 3070 cells.
The like results for `C=CCN1C(=O)/C(=C/c2ccc(N3CCOCC3)o2)C(=O)NC1=S` were, in that order, -0.32 (inactive) and 3270 cells.
`O=C1N/C(=N/Nc2ccccc2)S/C1=C\c1ccccc1`: the z-score is -0.26 (inactive) and the cell count is 3090 cells.
The like results for `COc1ccc(OCCn2cc(/C(N)=N/O)c3ccccc32)cc1` were, in that order, -0.33 (inactive) and 2930 cells.
The like results for `O=C(CSc1ncn[nH]1)NCc1ccccc1` were, in that order, -0.39 (inactive) and 3380 cells.
The like results for `O=C1S/C(=C/c2ccc(N3CCOCC3)o2)C(=O)N1Cc1c(F)cccc1Cl` were, in that order, 1.3 and 3280 cells.
For the compound `COc1ccc(C2C(C(=O)N3CCOCC3)CCC(=O)N2c2ccc(OC)cc2)cc1` (configuration not stated), the z-score is -0.26 (inactive) and the cell count turned out to be 3020 cells.
Regarding `Cc1ccccc1OCC(=O)OC1CCN(C)CC1`, the z-score was -0.38 (inactive) and the cell count stood at 2940 cells.
In the case of `COCc1cc(C)nc(Nc2ccccc2C)c1C#N`, the z-score is -0.34 (inactive) and the cell count was determined as 3240 cells.
The matching figures for `C=CCNC(=O)C1CCN(S(=O)(=O)c2ccc(Br)cc2)CC1`: -0.33 (inactive) and 3230 cells.
Consider `Cc1nn(-c2c(Cl)cc(Cl)cc2Cl)c(=O)c2ccccc12`, for which the z-score is -0.33 (inactive) and the cell count is 3220 cells.
The matching figures for `Cc1[nH]c2ccccc2c1/C=N/Nc1ccc([N+](=O)[O-])cc1`: 0.2 and 1600 cells.
For the compound `COc1ccc(C)cc1NC(=O)COC(C)=O`, the z-score was -0.33 (inactive) and the cell count was 3030 cells.
The like results for `COCCNC(=S)N/N=C(\C)c1ccc2cc(OC)ccc2c1` were, in that order, -0.33 (inactive) and 2790 cells.
The matching figures for `CN(C)CCOCCOc1ccccc1-c1ccccc1`: -0.33 (inactive) and 3130 cells.
With `CCOC(=O)c1cnn(-c2cc(C)nc3c(-c4ccccc4)cnn23)c1N`, the z-score is -0.39 (inactive) and the cell count was found to be 3280 cells.
The like results for `CCOC(=O)/C(=C\C=C1/Sc2cc(OCC)c(OCC)cc2N1CC)C(C)=O` were, in that order, 0.55 and 2790 cells.
For `Cc1cc(C)nc(N2CCC(C(=O)Nc3ccc4c(c3)OCCO4)CC2)n1`, the z-score is -0.33 (inactive) and the cell count worked out at 2790 cells.
The like results for `O=C(NCc1cccs1)c1ccc(N2CCCCC2)nc1` were, in that order, -0.33 (inactive) and 2760 cells.
The matching figures for `CC1(C)Cc2c(c(-c3ccccc3)[nH]c(=O)c2C#N)CO1`: -0.33 (inactive) and 3520 cells.
The matching figures for `Nc1c(C(=O)C2CC2)sc2nc(-c3cccs3)cc(C(F)(F)F)c12`: 0.95 and 2750 cells.
For `CCCSc1nc2sc3c(c2c(=O)[nH]1)CCN(Cc1ccccc1)C3`, the z-score was -0.3 (inactive) and the cell count was 3160 cells.
The like results for `Cc1ccc(Nc2nc(Cl)c(C=O)s2)cc1Cl` were, in that order, -0.27 (inactive) and 2840 cells.
In the case of `CCOc1ccc(-c2c(C#N)c(N)nc3sc(C(=O)c4ccccc4)c(N)c23)cc1`, the z-score is 0.98 and the cell count amounted to 3090 cells.
The like results for `O=C(N=C1SCC(=O)N1c1ccccc1Cl)c1ccccc1` were, in that order, -0.31 (inactive) and 3110 cells.
Turning to `CCN(CC)c1ccc(C(=O)N/N=C/c2ccc(N3CCOCC3)cc2)cc1`, the z-score was -0.37 (inactive) and the cell count was found to be 3040 cells.
The like results for `S=c1[nH]nc(-c2ccccc2)n1CC1CCCO1` (configuration not stated) were, in that order, -0.33 (inactive) and 3250 cells.
The like results for `CCCc1cc(=O)[nH]c(SCC(=O)NCCCC(=O)OCC)n1` were, in that order, -0.33 (inactive) and 3040 cells.
The like results for `COc1ccc(CC(=O)N2CCN(C)CC2)cc1` were, in that order, -0.33 (inactive) and 3120 cells.
As for `CCCCN(C)C1=CC2=CC(=C(C#N)C#N)CCC2CC1` (configuration not stated), the z-score was 11.3 and the cell count is 3120 cells.
The like results for `COc1cc2c(cc1NC(=O)CN1CCN(S(=O)(=O)c3ccccc3F)CC1)oc1ccccc12` were, in that order, -0.33 (inactive) and 3180 cells.
Take `COc1ccc(/C=C(\C#N)C(=O)OCC(=O)Nc2c(C)cccc2C(C)C)cc1`: the z-score was -0.39 (inactive) and the cell count was 2950 cells.
Turning to `Cc1cccc2sc(NNC(=O)c3ccc4c(c3)OCCO4)nc12`, the z-score was -0.39 (inactive) and the cell count was 3230 cells.
The like results for `COC(CNC(=O)c1ccc(Cn2c(=S)[nH]c3cc4c(cc3c2=O)OCO4)cc1)OC` were, in that order, -0.33 (inactive) and 3340 cells.
The matching figures for `CC(C)C1S/C(=N/N=C/c2ccco2)NC1=O` (configuration not stated): -0.33 (inactive) and 3160 cells.
As to `Cc1cc(C)n(C(=O)CCC2COc3ccccc3O2)n1` (configuration not stated), the z-score is -0.25 (inactive) and the cell count turned out to be 2940 cells.
The like results for `CN1/C(=C\C=C2/C(=O)Oc3ccccc3C2=O)C(C)(C)c2ccccc21` were, in that order, 3.27 and 3310 cells.
The matching figures for `C=CCN1C(=O)/C(=C/C=C2/N(CC)c3ccc(S(=O)(=O)N(C)C)cc3N2CC)SC1=S`: 0.26 and 2740 cells.
With `Cc1ccc(S(=O)(=O)Nc2ccc(=O)n(Cc3ccc(Cl)c(Cl)c3)c2)cc1`, the z-score is -0.33 (inactive) and the cell count was 3230 cells.
For `O=C(C1=C[C@H](C2CC2)C[C@H](OCCCCO)O1)N1CCN(Cc2ccccc2)CC1`, the z-score was -0.38 (inactive) and the cell count turned out to be 2880 cells.
The like results for `c1ccc2c(N3CCNCC3)nsc2c1` were, in that order, -0.39 (inactive) and 2010 cells.
Regarding `c1ccc(-c2csc(-n3cnnn3)n2)cc1`, the z-score was -0.38 (inactive) and the cell count came to 3240 cells.
The like results for `COc1cc2c3nnc(-c4ccccc4)c-3cn(Cc3ccccc3F)c2cc1OC` were, in that order, 3.78 and 770 cells.
In the case of `CCN1CCc2c(sc(NC(=O)Nc3ccc(Cl)c(Cl)c3)c2C(N)=O)C1`, the z-score was 8.59 and the cell count was 1910 cells.
The like results for `Cc1ccc(C)c(NC(=O)C(C)CC2COCCO2)c1` (configuration not stated) were, in that order, -0.38 (inactive) and 3230 cells.
Take `Cc1[nH]c2ccccc2c1/C=N/Nc1ccc([N+](=O)[O-])cc1S(=O)(=O)Nc1ccc(Cl)cc1`: the z-score was 0.35 and the cell count was determined as 2050 cells.
With `COc1cccc(C(=O)CN2C(=O)C(C)(C)Oc3ccc(C(=O)N4CCCCCC4)cc32)c1`, the z-score was -0.33 (inactive) and the cell count was 3680 cells.
The matching figures for `CNC(=O)C1CC(=O)N/C(=N/N=C(\C)c2cccs2)S1` (configuration not stated): -0.38 (inactive) and 3440 cells.
As for `CC(=O)N1CCN(Cc2nc3cc(NC(=O)c4ccccc4)ccc3n2C)CC1`, the z-score was -0.38 (inactive) and the cell count came to 2960 cells.
The matching figures for `CCOc1ccc(NC2=NCC(=O)N2Cc2cccs2)cc1`: -0.38 (inactive) and 3020 cells.
The matching figures for `CCCCCCn1c(O)c(C=Nc2ccccc2N2CCOCC2)c(=O)[nH]c1=S`: -0.37 (inactive) and 3050 cells.
The matching figures for `Cn1c(=O)n(C)c2cc(NC(=O)COc3ccc(Cl)cc3)ccc21`: -0.33 (inactive) and 3010 cells.
As to `CN(C)c1ccc(/C=C2\SC(=O)N(CC(O)Cn3c4ccccc4c4ccccc43)C2=O)cc1` (configuration not stated), the z-score was -0.23 (inactive) and the cell count was 3020 cells.
Turning to `Cc1noc(/C=C/c2ccc(-c3ccccc3Cl)o2)c1[N+](=O)[O-]`, the z-score was 0.5 and the cell count came to 3160 cells.
Regarding `CCCCN1C(=O)C2(NNc3ccccc3O2)c2ccccc21` (configuration not stated), the z-score was -0.31 (inactive) and the cell count is 2820 cells.
The matching figures for `CCS(=O)(=O)N1Cc2ccccc2CC1C(=O)OCC(=O)Nc1ccc(C)cc1` (configuration not stated): -0.33 (inactive) and 3150 cells.
The like results for `Cc1c(C(c2ccc([N+](=O)[O-])cc2)c2c(C)n(C)n(-c3ccccc3)c2=O)c(=O)n(-c2ccccc2)n1C` were, in that order, -0.39 (inactive) and 3040 cells.
For the compound `OC(COc1cccc2ccccc12)CN1CCN(c2ccccc2Cl)CC1` (configuration not stated), the z-score is -0.39 (inactive) and the cell count worked out at 3270 cells.
As for `Cc1ccc(-c2cc(N)n(-c3ccccc3)n2)cc1`, the z-score was -0.33 (inactive) and the cell count worked out at 3090 cells.
